{"source": "patent US20180265934A1", "about": "“COINCIDENCE REPORTER GENE SYSTEM” (The United States of America, as represented by the …, priority 2013, published 2018)", "key": {"[1]": {"tested_on": "PARK2 (Parkin) gene expression", "assay": "Compound library screening, Parkin coincidence reporter cell line (FLuc-P2A-NLuc in PARK2 locus, BE(2)-M17 cells), 1536-well", "type": "cell-based, human", "conditions": "24 h, titration", "method": "Construction of the Parkin coincidence reporter cell line by TALEN-mediated genome editing was carried out as follows. To generate a double-strand cleavage of the genomic DNA in the first codon of the PARK2 gene, constructs encoding transcription activator-like effector nuclease (TALEN) pairs (Right and Left) encoding components of the heterodimeric FokI nuclease were generated as described by Huang et al., Nature Biotechnology, 29: 699-700 (2011). The TALEN pair was designed to generate a double-strand cleavage at or near the first translation codon (ATG) within the Parkin gene. These constructs were transfected with Lipofectamine LTX (Life Technologies) into BE(2)-M17 cells (ATCC) […] along with a GFP-expressing marker plasmid and the coincidence reporter donor plasmid. After 48 hours of incubation in a tissue culture incubator, GFP-positive cells were sorted by FACS analysis and single clones were isolated and expanded. Once sufficient cell populations for each clone were achieved, analysis of correct genomic insertion of the Fluc-P2A-NLuc-PEST-PolyA coincidence reporter cassette that replaced the “ATGATAG” (SEQ ID NO: 362) sequence at the […] of the PARK2 gene exon 1 was ascertained by PCR and DNA sequencing of genomic DNA preparations (QIAGEN).\nCompound library screening in 1536-well plates was carried out as follows. The Parkin coincidence reporter cell line was seeded at a density of 2000 cell/well into white, solid bottom, tissue-culture treated (Greiner Bio-One), 1536-well microplates in a total of 5 μL/well of culture medium. After a 16 hour incubation in a tissue-culture incubator, a compound pin tool (Wako) was used to transfer 20 nL of compound dissolved in DMSO for library plates to the assay plates. Compounds were present in either a 6 or 12-point titration in the library plates. DMSO vehicle, CCCP, and PTC-124 were also added to the designated control well. After a 24 hour incubation in the tissue culture incubator, the volume in each well of both plates was reduced to 2 μL with a microplate aspiration system (BioTek) and then 2 μL of Firefly Luciferase assay reagent (Promega) was added to every well each plate and luminescent signal from each well of each plate was measured on a VIEWLUX plate reader (PerkinElmer). Following the first read, 2 μL of NanoLuc assay reagent (Promega) including a proprietary firefly luciferase inhibitor (to quench the firefly reaction) was added to every well of each plate. After a second 15 minute incubation at room temperature, the NanoLuc signal from each well of each plate was measured on the VIEWLUX. Raw luminescent signal is expressed as a % of the positive control (10 uM CCCP for NanoLuc and 500 nM PTC-124 for FLuc)."}, "[2]": {"tested_on": "cAMP-response element (CRE), adenylyl cyclase signaling", "assay": "Compound test, 24-point titration, 4×CRE-driven FLuc-P2A-RLuc (pCI-6.24), 384-well", "type": "cell-based", "conditions": "PTC124 on FLuc, BTS on RLuc; relative to non-treated control", "method": "(§1) For the compound test, forskolin, PTC124 and BTS were prepared in a 24-point intraplate titration format and pre-diluted in the cell culture medium. Purified pCI-6.24 construct was transfected into GRIPTITE 293 MSR cells (Life Technologies). Sixteen hours post transfection, cells were trypsinized and then dispensed at 2,000 cells/15 μL/well in 384-well tissue culture treated white/solid bottom plates (Greiner Bio-One North America). Five μL of pre-diluted compound was transferred into assay plates, resulting in a final concentration ranging from 0.027 nM to 227 μM (forskolin) and 0.011 nM to 91 μM (PTC124 and BTS). The assay plates were incubated at 37° C. for 10 hours. FLuc and RLuc activities were then detected using DUAL-GLO reagent (Promega) and a VIEWLUX plate reader (PerkinElmer). Concentration-response curves and concentrations of half-maximal activity (EC50) for each compound were generated by using PRISM 4 software (GraphPad Software, Inc., La Jolla, Calif.)."}, "p53 RE": {"tested_on": "p53 RE", "assay": "FLuc2P-NLucP reporter assay, p53 RE-driven construct (pCI-4.38) in HEK293 cells", "type": "cell-based", "conditions": "10 μM etoposide, 24 h", "method": "(§2) The FLuc2P-NLucP reporter assay and compound test was carried out as follows. This protocol measures bioluminescence derived from both FLuc2P and NLucP. The purified DNA construct pCI-4.38 was transfected into HEK293 cells and the cells were cultured as described in Example 1. Sixteen hours after transfection, the cells were trypsinized and then dispensed at 2,000 cells/20 μL/well into two 384-well tissue culture treated white/solid bottom plates (Greiner Bio-One North America). After adding Etoposide (Sigma) or control DMSO, the assay plates were incubated at 37° C. for 24 hours before adding the ONE-GLO or NANO-GLO detection reagents (Promega). Luminescence from luciferase activity was detected by using a VIEWLUX plate reader (PerkinElmer)."}, "ARE": {"tested_on": "ARE", "assay": "FLuc2P-NLucP reporter assay, ARE-driven construct (pCI-4.37) in HEK293 cells", "type": "cell-based", "conditions": "100 μM tBHQ, 24 h", "method": "as §2, with “A” for “The”, “pCI-4.37” for “pCI-4.38”, “cells.” for “cells and the cells were cultured as described in Example 1.”, “and” for “and then”, “tert-Butylhydroquinone (tBHQ)” for “Etoposide”"}, "Parkin expression": {"tested_on": "Parkin expression", "conditions": "previously demonstrated, Bouman et al. 2011; cited from earlier work"}, "SV40 promoter": {"tested_on": "SV40 promoter", "assay": "Compound test, SV40-driven FLuc-P2A-RLuc construct (pCI-6.20)", "type": "cell-based", "conditions": "pCI-6.20 construct", "method": "as §1\nThis experiment was repeated with cells transfected with the pCl-6.20 construct, which encoded FLuc-P2A-RLuc under the control of the SV40 […]."}, "[3]": {"tested_on": "cAMP-response element (CRE) / CREB pathway", "assay": "LOPAC1280 qHTS, 4×CRE-driven FLuc-P2A-RLuc coincidence reporter (pCI-6.24) in GripTite 293 MSR cells", "type": "cell-based", "conditions": "for EC50: GripTite 293 MSR", "method": "This protocol measures bioluminescence derived from both FLuc and RLuc expression from a single assay. […] Sixteen hours after transfection, cells were trypsinized and then dispensed at 2,000 cells/20 μL/well in 384-well tissue culture treated white/solid bottom plates (Greiner Bio-One North America, Monroe, N.C.). The assay plates were incubated at 37° C. for 10 hours before adding the DUAL-GLO detection reagent (Promega). Luminescence from luciferase activity was detected by using a VIEWLUX plate reader (PerkinElmer, Waltham, Mass.).\nSixteen hours after transfection, cells were trypsinized and then dispensed at 500 cells/4 μL/well in 1,536-well tissue culture treated white/solid bottom plates (Greiner Bio-One North America) using a multidrop combi dispenser (Thermo Fisher Scientific). […] The assay plates were incubated at 37° C. for 10 hours before adding the DUAL-GLO detection reagent (3.5 μL+3.5 μL for each well) (Promega). Luminescence from luciferase activity was detected by using VIEWLUX (PerkinElmer). Each experimental plate contained forskolin as a positive control and DMSO as a negative control. Percentage activity was defined as the percentage signal relative to forskolin (100%) and DMSO (0%)."}}, "note": "Where two headings read alike, the source gives them in different places.", "data": [{"compound": "O=C(O)c1cccc(-c2noc(-c3ccccc3F)n2)c1", "note": "[PTC124]", "values": [{"measurement": "coincident reporter response (FLuc and NLuc)", "setting": "[1]", "value": "do not elicit a coincident reporter response"}, {"measurement": "signal obtained through reporter interference", "setting": "[1]", "value": "FLuc signal is obtained through reporter interference"}, {"measurement": "effect on reporter activity by reporter stabilization", "setting": "[2]", "value": "increase the activity of the reporters"}]}, {"compound": "COc1cc([C@@H]2c3cc4c(cc3[C@@H](O[C@@H]3O[C@@H]5CO[C@@H](C)O[C@H]5[C@H](O)[C@H]3O)[C@H]3COC(=O)[C@H]23)OCO4)cc(OC)c1O", "note": "[etoposide, Etoposide]", "values": [{"measurement": "reporter output vs DMSO", "setting": "p53 RE", "value": "greater RLU values"}]}, {"compound": "CC(C)(C)c1cc(O)ccc1O", "note": "[tBHQ, tert-Butylhydroquinone]", "values": [{"measurement": "reporter output vs DMSO", "setting": "ARE", "value": "greater RLU values"}]}, {"compound": "Tunicamycin", "values": [{"measurement": "induction of Parkin expression", "setting": "Parkin expression", "value": "induce Parkin expression"}]}, {"compound": "C=C[C@@]1(C)CC(=O)[C@]2(O)[C@@]3(C)[C@@H](O)CCC(C)(C)[C@@H]3[C@H](O)[C@H](OC(C)=O)[C@@]2(C)O1", "note": "[cpd 19, Forkskolin]", "values": [{"measurement": "activity where reporter expression was driven by the SV40 promoter", "setting": "SV40 promoter", "value": "inactive"}, {"measurement": "Ratio F/R", "setting": "[3]; FLuc EC50 / RLuc EC50, Table 5", "value": 0.90}, {"measurement": "EC50", "setting": "[3]; 10 h, Table 5, coincident activators, FLuc readout, 10 h, ~4 nM to 57 μM, read-out: FLuc EC50", "value": 1320, "unit": "nM"}, {"measurement": "EC50", "setting": "[3]; 10 h, Table 5, coincident activators, RLuc readout, 10 h, ~4 nM to 57 μM, read-out: RLuc EC50", "value": 1470, "unit": "nM"}, {"measurement": "EC50", "setting": "[3]; FLuc readout, 1536 interplate format, read-out: Intraplate Forskolin Control Mean", "value": 860, "unit": "nM"}, {"measurement": "EC50", "setting": "[3]; RLuc readout, 1536 interplate format, read-out: Intraplate Forskolin Control Mean", "value": 880, "unit": "nM"}]}, {"compound": "N#CC(C#N)=NNc1cccc(Cl)c1", "note": "[carbonyl cyanide m-chlorophenyl hydrazone]", "values": [{"measurement": "induction of Parkin expression", "setting": "Parkin expression", "value": "induce Parkin expression"}]}]}
